Measured values reported in patent US20230158152A1, “PROTEOLYSIS REGULATOR AND METHOD FOR USING SAME” (MEDSHINE DISCOVERY INC., priority 2020, published 2023).

Experiment: Pharmacokinetics of the compound in mice
Type: in vivo, C57BL/6 (C57) mice
Excerpt: In this study, C57BL male mice were selected as assay animals, and the LC/MS/MS method was used to quantitatively determine the compound concentration at different time points in the plasma of mice administered intravenously or orally with the assay compound, so as to evaluate pharmacokinetic profile of the assay compound in mice.
C57BL/6 (C57) mice (male, 17-20 g, 7-10 weeks old, from Shanghai lingchang).
A clear solution of the assay compound was intravenously injected into C57 mice via tail (fasted overnight) or administered to C57 mice by gavage (fasted overnight). 200 μL of blood was collected from the saphenous vein at 0.0833, 0.25, 0.5, 1, 2, 4, 8 and 24 h after intravenous administration, and placed in an anticoagulant tube (Jiangsu Kangjian Medical Co., Ltd.) supplemented with EDTA-K2. The mixture was thoroughly vortexed at 4° C. and centrifuged at 3200 g for 10 min. Blood was collected from the saphenous vein at 0.25, 0.5, 1, 2, 4, 6, 8 and 24 h after oral gavage administration, and placed in an anticoagulant tube (Jiangsu Kangjian Medical Co., Ltd.) supplemented with EDTA-K2. The mixture was thoroughly vortexed and centrifuged at 3200 g for 10 min. Blood drug concentration was determined by LC-MS/MS, and relevant pharmacokinetic parameters were calculated with the non-compartmental model Linear/log trapezoidal method using Phoenix WinNonlin 6.3 pharmacokinetic software.

[1] = male, C57BL/6, mouse, plasma, intravenous injection (2 mg/kg)

- Area under the curve (0-inf) (intravenous injection (2 mg/kg)): 3.69 µM·h
- clearance [1]: 10.3 mL/min/kg
- half-life [1]: 1.74 h
- bioavailability (male, C57BL/6, mouse, plasma, oral (10 mg/kg), read-out: Bioavailability F): 11.7%
- Area under the curve (0-inf) (oral (10 mg/kg)): 2.33 µM·h
- Peak concentration (oral (10 mg/kg)): 0.68 µM
- Time to peak (oral (10 mg/kg)): 0.75 h
Structure (SMILES): Cc1cc(Nc2ncc(Cl)c(Nc3ccccc3S(=O)(=O)C(C)C)n2)c(OC(C)C)cc1C1CCN(CC(=O)NCCOc2ccc3occ(C4CCC(=O)NC4=O)c3c2)CC1 (stereo not shown) [WX001]
